In paper PMC9030254, “Target Hopping from Protein Kinases to PXR: Identification of Small-Molecule Protein Kinase Inhibitors as Selective Modulators of Pregnane X Receptor from TüKIC Library” (Cells, 2022):

Key:
Test in all cases: Kinase profiling
Assay type in all cases: biochemical
TAOK3 = target: T1, TAOK3 (Homo sapiens, UniProt Q9H2K8)
T1 construct: purchased ProQinase (Freiburg, Germany)
T1 sequence (Q9H2K8 1-898): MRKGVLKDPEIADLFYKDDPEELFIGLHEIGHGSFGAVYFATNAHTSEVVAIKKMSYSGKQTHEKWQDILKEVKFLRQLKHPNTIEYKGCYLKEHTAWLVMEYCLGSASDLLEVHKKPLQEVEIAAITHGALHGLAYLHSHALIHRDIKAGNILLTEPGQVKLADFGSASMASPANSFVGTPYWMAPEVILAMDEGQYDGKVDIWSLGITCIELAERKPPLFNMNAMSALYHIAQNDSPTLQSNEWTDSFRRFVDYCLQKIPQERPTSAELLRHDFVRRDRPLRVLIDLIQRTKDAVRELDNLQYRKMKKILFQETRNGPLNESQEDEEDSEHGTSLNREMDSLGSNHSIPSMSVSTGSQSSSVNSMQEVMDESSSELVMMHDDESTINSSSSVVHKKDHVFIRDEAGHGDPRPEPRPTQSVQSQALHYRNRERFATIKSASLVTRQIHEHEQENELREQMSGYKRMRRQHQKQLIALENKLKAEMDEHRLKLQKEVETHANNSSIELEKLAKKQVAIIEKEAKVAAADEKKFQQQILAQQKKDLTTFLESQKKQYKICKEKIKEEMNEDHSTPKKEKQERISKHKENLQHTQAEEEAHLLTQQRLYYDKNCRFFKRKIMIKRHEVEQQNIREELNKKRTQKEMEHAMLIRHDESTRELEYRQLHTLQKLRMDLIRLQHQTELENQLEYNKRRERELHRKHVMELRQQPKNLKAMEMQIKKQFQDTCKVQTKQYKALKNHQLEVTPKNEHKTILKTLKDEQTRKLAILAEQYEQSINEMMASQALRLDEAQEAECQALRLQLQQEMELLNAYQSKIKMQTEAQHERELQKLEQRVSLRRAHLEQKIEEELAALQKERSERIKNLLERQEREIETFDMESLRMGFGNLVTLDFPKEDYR
Procedure: (§1) The analysis was performed by ProQinase (Freiburg, Germany).

MYLK = target: T2, MYLK (Homo sapiens, UniProt Q15746)
T2 construct: purchased ProQinase (Freiburg, Germany)
T2 sequence (Q15746 whole entry): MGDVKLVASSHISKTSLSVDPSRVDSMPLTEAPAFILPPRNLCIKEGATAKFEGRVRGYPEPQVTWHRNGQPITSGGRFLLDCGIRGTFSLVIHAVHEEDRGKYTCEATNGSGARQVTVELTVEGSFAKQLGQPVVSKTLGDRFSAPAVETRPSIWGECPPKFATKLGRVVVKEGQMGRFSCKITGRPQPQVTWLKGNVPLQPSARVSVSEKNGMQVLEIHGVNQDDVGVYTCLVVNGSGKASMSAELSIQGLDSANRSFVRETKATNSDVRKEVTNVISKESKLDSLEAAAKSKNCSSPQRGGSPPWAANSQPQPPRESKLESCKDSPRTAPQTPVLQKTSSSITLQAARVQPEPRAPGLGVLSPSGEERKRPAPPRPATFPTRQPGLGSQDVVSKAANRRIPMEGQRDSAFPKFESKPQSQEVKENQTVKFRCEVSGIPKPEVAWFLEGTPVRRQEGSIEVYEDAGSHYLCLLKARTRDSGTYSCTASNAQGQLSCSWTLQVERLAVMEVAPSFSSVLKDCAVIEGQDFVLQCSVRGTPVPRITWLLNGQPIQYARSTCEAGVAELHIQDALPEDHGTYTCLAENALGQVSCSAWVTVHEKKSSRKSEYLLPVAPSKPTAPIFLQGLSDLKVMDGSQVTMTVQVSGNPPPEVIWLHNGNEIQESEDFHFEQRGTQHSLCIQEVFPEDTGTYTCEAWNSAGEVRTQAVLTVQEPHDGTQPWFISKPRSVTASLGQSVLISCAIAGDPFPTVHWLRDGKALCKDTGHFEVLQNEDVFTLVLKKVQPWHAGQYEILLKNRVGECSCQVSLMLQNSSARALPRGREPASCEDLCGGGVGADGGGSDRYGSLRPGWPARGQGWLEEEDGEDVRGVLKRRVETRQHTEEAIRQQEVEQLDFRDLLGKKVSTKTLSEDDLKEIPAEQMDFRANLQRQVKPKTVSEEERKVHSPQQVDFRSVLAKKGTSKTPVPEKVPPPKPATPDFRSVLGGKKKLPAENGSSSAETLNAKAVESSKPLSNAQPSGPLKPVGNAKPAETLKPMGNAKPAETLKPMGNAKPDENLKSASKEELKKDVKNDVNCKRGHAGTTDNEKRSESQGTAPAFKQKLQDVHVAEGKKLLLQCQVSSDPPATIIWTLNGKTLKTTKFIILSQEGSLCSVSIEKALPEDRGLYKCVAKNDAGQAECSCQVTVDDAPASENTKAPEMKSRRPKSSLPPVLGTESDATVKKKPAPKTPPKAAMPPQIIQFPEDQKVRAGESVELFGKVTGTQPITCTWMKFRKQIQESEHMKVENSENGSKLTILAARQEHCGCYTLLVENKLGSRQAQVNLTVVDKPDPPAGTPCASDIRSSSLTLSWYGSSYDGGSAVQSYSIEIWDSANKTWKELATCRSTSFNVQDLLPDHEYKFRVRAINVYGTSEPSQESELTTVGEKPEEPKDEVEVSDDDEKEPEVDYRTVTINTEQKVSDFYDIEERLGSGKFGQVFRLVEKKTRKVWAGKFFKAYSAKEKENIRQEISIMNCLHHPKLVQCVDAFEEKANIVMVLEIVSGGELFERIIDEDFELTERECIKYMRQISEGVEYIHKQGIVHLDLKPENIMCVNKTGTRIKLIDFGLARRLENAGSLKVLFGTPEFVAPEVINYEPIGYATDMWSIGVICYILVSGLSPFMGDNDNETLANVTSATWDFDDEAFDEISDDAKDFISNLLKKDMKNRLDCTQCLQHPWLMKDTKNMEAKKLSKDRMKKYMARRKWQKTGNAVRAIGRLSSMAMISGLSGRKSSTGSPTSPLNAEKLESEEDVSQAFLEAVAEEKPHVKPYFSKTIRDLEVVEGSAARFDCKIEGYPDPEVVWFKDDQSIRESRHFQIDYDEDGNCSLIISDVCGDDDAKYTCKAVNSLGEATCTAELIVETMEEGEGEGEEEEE
Procedure: as §1

DYRK2 = target: T3, DYRK2 (Homo sapiens, UniProt Q92630)
T3 construct: purchased ProQinase (Freiburg, Germany)
T3 sequence (Q92630 1-601): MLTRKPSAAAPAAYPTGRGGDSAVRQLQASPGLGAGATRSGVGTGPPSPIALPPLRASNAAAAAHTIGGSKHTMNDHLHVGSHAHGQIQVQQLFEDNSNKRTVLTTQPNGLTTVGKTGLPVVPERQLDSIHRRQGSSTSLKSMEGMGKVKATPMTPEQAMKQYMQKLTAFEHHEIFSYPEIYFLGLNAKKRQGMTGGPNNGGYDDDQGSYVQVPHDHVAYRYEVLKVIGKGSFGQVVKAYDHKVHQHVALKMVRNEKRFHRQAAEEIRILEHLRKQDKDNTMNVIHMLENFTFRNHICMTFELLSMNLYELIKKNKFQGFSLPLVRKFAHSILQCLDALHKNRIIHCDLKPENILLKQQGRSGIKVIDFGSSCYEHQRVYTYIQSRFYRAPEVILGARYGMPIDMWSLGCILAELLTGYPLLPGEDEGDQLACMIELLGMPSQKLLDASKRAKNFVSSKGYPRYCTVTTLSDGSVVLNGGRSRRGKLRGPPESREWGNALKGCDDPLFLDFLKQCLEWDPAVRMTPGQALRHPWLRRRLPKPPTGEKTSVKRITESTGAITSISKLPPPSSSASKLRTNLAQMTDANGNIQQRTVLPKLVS
Procedure: as §1

GSK3alpha = target: T4, GSK3alpha (Homo sapiens, UniProt P49840)
T4 construct: purchased ProQinase (Freiburg, Germany)
T4 sequence (P49840 whole entry): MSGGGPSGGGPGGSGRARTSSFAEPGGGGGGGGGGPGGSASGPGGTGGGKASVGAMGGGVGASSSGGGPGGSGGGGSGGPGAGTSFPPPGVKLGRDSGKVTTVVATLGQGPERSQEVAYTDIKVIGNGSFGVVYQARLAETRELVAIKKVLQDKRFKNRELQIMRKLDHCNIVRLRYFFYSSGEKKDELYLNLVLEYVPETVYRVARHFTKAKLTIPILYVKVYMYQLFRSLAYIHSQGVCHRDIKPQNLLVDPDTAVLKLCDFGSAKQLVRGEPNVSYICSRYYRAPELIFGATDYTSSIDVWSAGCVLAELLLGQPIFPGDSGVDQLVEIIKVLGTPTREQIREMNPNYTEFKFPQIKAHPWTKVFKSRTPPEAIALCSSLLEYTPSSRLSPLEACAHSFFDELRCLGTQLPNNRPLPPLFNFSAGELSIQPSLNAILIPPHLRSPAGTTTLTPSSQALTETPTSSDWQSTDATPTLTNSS
Procedure: as §1

CDK19/CycC = target: T5, CDK19/CycC (Homo sapiens, UniProt Q9BWU1)
T5 construct: purchased ProQinase (Freiburg, Germany)
T5 sequence (Q9BWU1 whole entry): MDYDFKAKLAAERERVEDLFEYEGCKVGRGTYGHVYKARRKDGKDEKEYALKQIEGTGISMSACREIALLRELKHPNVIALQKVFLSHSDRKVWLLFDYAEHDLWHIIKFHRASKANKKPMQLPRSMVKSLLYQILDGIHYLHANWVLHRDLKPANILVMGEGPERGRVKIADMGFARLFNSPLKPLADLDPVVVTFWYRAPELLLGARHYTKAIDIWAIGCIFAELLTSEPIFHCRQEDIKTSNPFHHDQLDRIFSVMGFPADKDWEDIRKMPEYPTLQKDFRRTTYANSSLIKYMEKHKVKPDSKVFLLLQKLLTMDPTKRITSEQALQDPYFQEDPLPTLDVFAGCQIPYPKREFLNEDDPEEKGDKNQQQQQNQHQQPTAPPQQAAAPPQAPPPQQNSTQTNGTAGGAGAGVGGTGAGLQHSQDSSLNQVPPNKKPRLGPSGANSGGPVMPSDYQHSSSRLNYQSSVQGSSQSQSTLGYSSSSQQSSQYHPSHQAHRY
T5 sequence (P24863 whole entry partner): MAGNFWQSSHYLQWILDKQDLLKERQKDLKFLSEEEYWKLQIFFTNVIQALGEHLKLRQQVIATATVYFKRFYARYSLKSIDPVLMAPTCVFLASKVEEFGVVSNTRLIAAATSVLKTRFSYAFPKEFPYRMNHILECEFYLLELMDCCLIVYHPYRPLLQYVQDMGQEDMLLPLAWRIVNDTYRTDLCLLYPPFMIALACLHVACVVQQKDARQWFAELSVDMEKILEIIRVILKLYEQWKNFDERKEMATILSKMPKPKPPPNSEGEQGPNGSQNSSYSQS
Procedure: as §1

SGK1 = target: T6, SGK1 (Homo sapiens, UniProt O00141)
T6 construct: purchased ProQinase (Freiburg, Germany)
T6 sequence (O00141 1-431): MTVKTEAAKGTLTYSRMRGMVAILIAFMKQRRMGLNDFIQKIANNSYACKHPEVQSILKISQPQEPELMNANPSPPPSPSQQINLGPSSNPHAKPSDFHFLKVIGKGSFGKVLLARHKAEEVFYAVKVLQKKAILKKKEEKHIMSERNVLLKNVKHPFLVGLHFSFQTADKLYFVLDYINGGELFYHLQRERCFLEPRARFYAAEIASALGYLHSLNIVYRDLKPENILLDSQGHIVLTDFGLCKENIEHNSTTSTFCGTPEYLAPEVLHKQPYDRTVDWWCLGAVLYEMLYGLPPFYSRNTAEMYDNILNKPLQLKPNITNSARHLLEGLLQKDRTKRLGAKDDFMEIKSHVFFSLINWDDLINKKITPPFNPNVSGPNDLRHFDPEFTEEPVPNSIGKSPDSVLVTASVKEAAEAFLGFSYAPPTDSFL
Procedure: as §1

HIPK4 = target: T7, HIPK4 (Homo sapiens, UniProt Q8NE63)
T7 construct: purchased ProQinase (Freiburg, Germany)
T7 sequence (Q8NE63 1-616): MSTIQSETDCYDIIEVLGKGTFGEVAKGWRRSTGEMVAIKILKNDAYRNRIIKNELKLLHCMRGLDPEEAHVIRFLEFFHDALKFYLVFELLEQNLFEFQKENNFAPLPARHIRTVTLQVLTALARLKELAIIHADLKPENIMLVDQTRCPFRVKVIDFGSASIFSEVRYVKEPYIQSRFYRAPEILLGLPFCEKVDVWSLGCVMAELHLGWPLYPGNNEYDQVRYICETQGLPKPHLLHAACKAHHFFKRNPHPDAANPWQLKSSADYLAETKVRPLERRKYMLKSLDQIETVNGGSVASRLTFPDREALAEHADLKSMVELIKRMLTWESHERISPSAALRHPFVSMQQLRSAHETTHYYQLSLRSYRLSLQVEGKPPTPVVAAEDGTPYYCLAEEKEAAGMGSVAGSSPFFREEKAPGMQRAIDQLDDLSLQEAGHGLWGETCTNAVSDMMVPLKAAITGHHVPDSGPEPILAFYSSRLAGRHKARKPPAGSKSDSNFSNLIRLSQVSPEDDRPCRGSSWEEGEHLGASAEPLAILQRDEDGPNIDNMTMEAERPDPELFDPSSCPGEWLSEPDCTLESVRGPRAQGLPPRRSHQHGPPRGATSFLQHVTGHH
Procedure: as §1

CDK6/CycD3 = target: T8, CDK6/CycD3 (Homo sapiens, UniProt Q00534)
T8 construct: purchased ProQinase (Freiburg, Germany)
T8 sequence (Q00534 whole entry): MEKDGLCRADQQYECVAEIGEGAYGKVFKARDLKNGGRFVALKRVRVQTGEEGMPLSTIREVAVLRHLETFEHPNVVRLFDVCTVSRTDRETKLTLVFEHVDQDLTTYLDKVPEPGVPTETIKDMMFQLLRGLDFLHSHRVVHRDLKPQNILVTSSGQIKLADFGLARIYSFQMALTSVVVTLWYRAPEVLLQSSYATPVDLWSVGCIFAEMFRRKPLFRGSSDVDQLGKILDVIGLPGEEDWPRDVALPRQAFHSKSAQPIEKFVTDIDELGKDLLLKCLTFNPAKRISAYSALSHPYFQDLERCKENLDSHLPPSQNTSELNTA
T8 sequence (P30281 whole entry partner): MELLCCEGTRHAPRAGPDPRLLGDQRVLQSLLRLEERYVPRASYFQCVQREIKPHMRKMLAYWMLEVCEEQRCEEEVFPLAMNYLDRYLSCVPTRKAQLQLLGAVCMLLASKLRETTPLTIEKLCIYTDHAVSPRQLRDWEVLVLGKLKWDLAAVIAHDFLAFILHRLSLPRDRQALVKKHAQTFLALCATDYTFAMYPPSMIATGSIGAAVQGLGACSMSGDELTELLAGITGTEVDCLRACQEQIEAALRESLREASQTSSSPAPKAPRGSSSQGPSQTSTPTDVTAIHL
Procedure: as §1

| Structure (SMILES) | Residual activity (TAOK3; 1.0E-05 M) | Residual activity (TAOK3; 1.0E-06 M) | Residual activity (MYLK; 1.0E-05 M) | Residual activity (MYLK; 1.0E-06 M) | Residual activity (DYRK2; 1.0E-05 M) | Residual activity (DYRK2; 1.0E-06 M) | Residual activity (GSK3alpha; 1.0E-05 M) | Residual activity (GSK3alpha; 1.0E-06 M) | Residual activity (CDK19/CycC; 1.0E-05 M) | Residual activity (CDK19/CycC; 1.0E-06 M) | Residual activity (SGK1; 1.0E-05 M) | Residual activity (SGK1; 1.0E-06 M) | Residual activity (HIPK4; 1.0E-05 M) | Residual activity (HIPK4; 1.0E-06 M) | Residual activity (CDK6/CycD3; 1.0E-05 M) | Residual activity (CDK6/CycD3; 1.0E-06 M) |
| --- | --- | --- | --- | --- | --- | --- | --- | --- | --- | --- | --- | --- | --- | --- | --- | --- |
| O=C(Cc1ccccc1)Nc1ccc(F)c(Nc2ccc3c(c2)CCCCC3=O)c1 [Compound 100] | 98 % of control | 105 % of control | 78 % of control | 92 % of control | 91 % of control | 89 % of control | 90 % of control | 109 % of control | 77 % of control | 81 % of control | 85 % of control | 108 % of control | 84 % of control | 92 % of control | 92 % of control | 90 % of control |
| O=C(Nc1ccc(F)c(Nc2ccc3c(c2)CCCCC3=O)c1)c1cccc(F)c1 [Compound 109] | 91 % of control | 99 % of control | 64 % of control | 81 % of control | 92 % of control | 98 % of control | 106 % of control | 112 % of control | 74 % of control | 83 % of control | 97 % of control | 99 % of control | 91 % of control | 95 % of control | 93 % of control | 87 % of control |
